Experimental data taken from patent publication US20220348590A1, “CYCLOOXYGENASE-2 INHIBITORS AND USES THEREOF” (The Board Institute, Inc., priority 2019, published 2022).
Values after ≈ are worked out from the molar mass of the structure shown. Where two headings read alike, the source gives them in different places.

Key:
[1] = Mouse Plasma Protein Stability (% Remaining); format: in vitro ADME; details: average
Rat Microsome Stability = format: in vitro ADME; details: rat microsomes
[2] = biological target: T1, human recombinant COX2 (hCOX2) (UniProt P35354); test: LCMS-based COX2 enzymatic inhibition assay (PGE2 quantification); format: biochemical; design: COX2 2 minutes pge2/pge2d4 area ratio Avg; other: 2 minutes; readout pge2/pge2d4 area ratio; average; COX2 2 minutes pge2/pge2d4 area ratio Avg; LLE; average LLE; COX2 2 minutes pge2 area (counts) Avg; readout pge2 area (counts); other: 2 min; "ovine COX2 (oCOX2), human recombinant COX2 (hCOX2)"; details: for COX2 2 minutes pge2/pge2d4 area ratio Avg. LLE / COX2 2 minutes pge2 area (counts) Avg. LLE / COX2 10 minutes pge2 area (counts) Avg. LLE: average LLE; for IC50: average
T1 sequence (P35354 1-604): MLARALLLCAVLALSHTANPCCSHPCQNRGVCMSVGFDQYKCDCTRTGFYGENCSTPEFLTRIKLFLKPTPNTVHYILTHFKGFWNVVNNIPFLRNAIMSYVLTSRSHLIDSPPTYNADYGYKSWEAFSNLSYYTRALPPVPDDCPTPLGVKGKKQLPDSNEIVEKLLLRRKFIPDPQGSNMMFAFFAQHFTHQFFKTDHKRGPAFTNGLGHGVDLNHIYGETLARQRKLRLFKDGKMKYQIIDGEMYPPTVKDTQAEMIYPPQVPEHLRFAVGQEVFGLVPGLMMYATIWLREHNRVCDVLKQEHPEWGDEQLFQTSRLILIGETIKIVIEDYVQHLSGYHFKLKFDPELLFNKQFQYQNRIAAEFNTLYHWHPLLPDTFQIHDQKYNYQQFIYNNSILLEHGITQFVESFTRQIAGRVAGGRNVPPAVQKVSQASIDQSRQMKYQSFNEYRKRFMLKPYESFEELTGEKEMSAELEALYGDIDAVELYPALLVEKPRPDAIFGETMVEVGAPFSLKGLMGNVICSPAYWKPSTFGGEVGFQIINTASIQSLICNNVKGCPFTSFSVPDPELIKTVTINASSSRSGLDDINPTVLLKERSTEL
Procedure, shortened: (§1)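 Ovine COX-1 (0.1 μg) or human recombinant COX2 (0.2 μg) in 100 mM Tris.HCl pH 8.0 with hematin and epinephrine, preincubated with inhibitor 10 min at 37 °C. Reaction with 5 μM arachidonic acid stopped after 2 min with HCl; PGE2 quantified by LC-MS-MS. IC50 from 12 concentrations in triplicate.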

ovine COX-1 (oCOX-1) = biological target: T2, ovine COX-1 (oCOX-1) (Ovis aries, UniProt P05979); test: LCMS-based COX-1 enzymatic inhibition assay (PGE2 quantification); format: biochemical; details: 10 minutes
T2 construct: purchased Cayman Chemicals (Ann Arbor, Mich.)
T2 sequence (P05979 25-600): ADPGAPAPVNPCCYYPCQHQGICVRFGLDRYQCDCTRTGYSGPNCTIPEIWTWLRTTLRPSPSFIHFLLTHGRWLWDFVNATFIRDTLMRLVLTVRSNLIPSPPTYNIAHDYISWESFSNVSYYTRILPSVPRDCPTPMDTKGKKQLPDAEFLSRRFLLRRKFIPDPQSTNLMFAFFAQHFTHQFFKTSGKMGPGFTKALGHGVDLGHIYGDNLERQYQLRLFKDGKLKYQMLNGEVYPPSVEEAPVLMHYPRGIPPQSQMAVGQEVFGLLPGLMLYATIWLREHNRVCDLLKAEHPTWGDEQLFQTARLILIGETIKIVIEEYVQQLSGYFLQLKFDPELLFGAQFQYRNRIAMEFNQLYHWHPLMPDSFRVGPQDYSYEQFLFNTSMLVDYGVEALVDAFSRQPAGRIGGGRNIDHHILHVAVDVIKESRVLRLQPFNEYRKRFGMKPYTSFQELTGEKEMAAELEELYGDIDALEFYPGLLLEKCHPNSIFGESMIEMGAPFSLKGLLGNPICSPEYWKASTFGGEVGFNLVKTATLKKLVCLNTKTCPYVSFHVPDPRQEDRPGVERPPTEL
Procedure, shortened: as §1

PBS Solubility (no DMSO) = format: physicochemical; details: aqueous buffer, thermodynamic from solid, average
[3] = rat plasma protein binding (PPB) assay; format: in vitro ADME; details: average, read-out: Rat Plasma Protein Binding % Bound Avg (converted)
Experimental: (§2) We have adapted a previously reported cyclooxygenase enzymatic assay utilizing LCMS quantification of PGE2 as the product of COX-1 and COX2 catalyzed conversion of arachidonic acid to evaluate the binding properties of newly synthesized ligands [Cao, 2011]. These optimized and miniaturized (384-well plates) LCMS-based COX-1 and COX2 enzymatic assays enabled us to quickly evaluate newly synthesized ligands for COX2 binding affinity and selectivity vs COX-1. Using a shorter ligand-enzyme incubation time in the LCMS assay (2 minutes vs 10 minutes) also permitted us to prioritize ligands with faster binding kinetics. Considering the relatively slow on-rate kinetics of known coxibs, due to their 3-step binding mechanism [Marnett, 2009], we believe that optimizing this critical parameter will be key to the successful development of a COX2 PET tracer. Using these enzymatic assays, we have evaluated>200 newly synthesized ligands against COX2 and >20 ligands against COX-1. Another critical property necessary for a good PET radiotracer is to have low non-specific binding (NSB) to increase the free fraction and maximize the signal to noise ratio. This property can be evaluated using in-vitro protein binding assays, and we have now evaluated>50 newly synthesized ligands in mouse, rat and human plasma protein binding (PPB) assays as well as >15 ligands in a mouse brain protein binding (BPB) assay.

[4] = Rat Plasma Protein Stability (% Remaining); format: in vitro ADME; details: average
[5] = mouse plasma protein binding (PPB) assay; format: in vitro ADME; details: average, read-out: Mouse Plasma Protein Binding % Bound Avg (converted)
Experimental: as §2

MDR1 = test: MDR1-MDCKII permeability and efflux; format: in vitro ADME; details: dog, MDCK-MDR1
[6] = Human Microsome Stability; format: in vitro ADME; details: human microsomes
[7] = Mouse Microsome Stability; format: in vitro ADME; details: mouse microsomes
[8] = in-vitro protein binding: free fraction / fraction unbound, matrix and species not given; format: in vitro ADME
Experimental: as §2

[9] = biological target: T1, human recombinant COX2 (hCOX2); test: LCMS-based COX2 enzymatic inhibition assay (PGE2 quantification); format: biochemical; design: improvement in potency; other: COX2 potency relative to MC1 / earlier ligand; comparator not always stated; other: vs MC1 (MC-1); details: COX2 potency relative to MC1 / earlier ligand; comparator not always stated
Experimental: as §2
Ovine COX-1 (oCOX-1), ovine COX2 (oCOX2), human recombinant COX2 (hCOX2), arachidonic acid, PGE2, d4-PGD2, and […] (labeled with deuterium atoms at positions 3 and 4) were purchased from Cayman Chemicals (Ann Arbor, Mich.). The cofactors (−)epinephrine and hematin, and the COX inhibitors indomethacin, resveratrol and diclofenac were purchased from Sigma-Aldrich (St. Louis, Mo.). Celecoxib was purchased from 3B PharmaChem International (Wuhan, China). All organic solvents were HPLC grade or better and were purchased from Thermo Fisher (Hanover Park, Ill.). Formic acid was purchased from EMD Chemicals (San Diego, Calif.). Purified water was prepared by using a Millipore Milli-Q purification system (Millipore, Billerica, Mass.). All other chemicals and solvents were ACS reagent grade, unless stated otherwise.
In an Eppendorf tube, 146 μL of 100 mM Tris.HCl (pH 8.0) buffer, 2 μL of 100 μM hematin (co-factor) and 10 μL of 40 mM L-epinephrine (co-factor) were mixed at room temperature. […]
The concentration of PGE2 in each sample was measured using LC-MS-MS, and the percent of COX inhibition by each test solution was determined by comparing the amount of PGE2 produced in the experiment with that produced in the negative control incubation. The formation of PGD2 was measured for quality control purposes, since the levels of PGD2 should be proportional to those of PGE2. […]

[10] = 2 minutes, readout pge2/pge2d4 area ratio
[11] = 2 minutes, readout pge2/pge2d4 area ratio, read-out: COX2 2 minutes pge2/pge2d4 area ratio Avg. IC50
[12] = 2 minutes, readout pge2 area (counts)
[13] = 2 minutes, readout pge2 area (counts), read-out: COX2 2 minutes pge2 area (counts) Avg. IC50
[14] = 10 minutes, readout pge2 area (counts)
[15] = 10 minutes, readout pge2 area (counts), read-out: COX2 10 minutes pge2 area (counts) Avg. IC50
[16] = head of this section not shown, inferred
[17] = pge2 area (counts), head of this section not shown, inferred
[18] = pge2 area (counts), head of this section not shown, inferred, read-out: COX1 10 minutes pge2 area (counts) Avg. IC50
[19] = readout pge2/pge2d4 area ratio, average, read-out: COX1 10 minutes pge2/pge2d4 area ratio Avg. IC50

Compound	COX2 2 minutes pge2/pge2d4 area ratio Avg. LLE [2, 10]	IC50 [2, 11]	COX2 2 minutes pge2 area (counts) Avg. LLE [2, 12]	IC50 [2, 13]	COX2 10 minutes pge2 area (counts) Avg. LLE [2, 14]	IC50 [2, 15]	COX1 10 minutes pge2 area (counts) Avg. LLE (ovine COX-1 (oCOX-1); [17])	Human Microsome Stability % Remaining Avg [6]	Mouse Microsome Stability % Remaining Avg [7]	further results
COc1ncc(NCc2ccco2)nc1-c1ccc(S(C)(=O)=O)cc1 [Compound 43]	5.827	19.5 nM	5.859	18.5 nM	–	–	–	–	–	Mouse Plasma Protein Stability % Remaining Avg [1]: 102.6%; Rat Microsome Stability % Remaining Avg (Rat Microsome Stability): 11.1%; COX1 10 minutes pge2 area (counts) Avg. LLE (ovine COX-1 (oCOX-1); readout pge2 area (counts), average LLE): 2.44; IC50 (ovine COX-1 (oCOX-1); readout pge2 area (counts), average, read-out: COX1 10 minutes pge2 area (counts) Avg. IC50): 42700 nM; solubility (PBS Solubility (no DMSO)): 21 µM (≈ 7.55 µg/mL); fraction unbound [3]: 0.028; Rat Plasma Protein Stability % Remaining Avg [4]: 107.3%; fraction unbound [5]: 0.046
CS(=O)(=O)c1ccc(-c2cnc3ccn(Cc4cccs4)c3n2)cc1 [Compound 74]	3.899	43.2 nM	3.894	47.4 nM	5.561	0.932 nM	2.996	–	–	efflux ratio (MDR1): 1; Papp A→B (MDR1; A-B, read-out: MDR1-MCKII Papp A-B): 32.2 ×10⁻⁶ cm/s; Papp B→A (MDR1; B-A, read-out: MDR1-MCKII Papp B-A): 32 ×10⁻⁶ cm/s; COX1 10 minutes pge2/pge2d4 area ratio Avg. LLE (ovine COX-1 (oCOX-1); [16]): 3.046; IC50 (ovine COX-1 (oCOX-1); [18]): 342 nM; IC50 (ovine COX-1 (oCOX-1); [19]): 305 nM
CS(=O)(=O)c1ccc(-c2cncc(NCc3ccc(F)cc3)n2)cc1 [Compound 96]	4.85	74.2 nM	4.897	85 nM	5.83	7.94 nM	2.128	54.9%	30.5%	COX1 10 minutes pge2/pge2d4 area ratio Avg. LLE (ovine COX-1 (oCOX-1); [16]): 2.186; IC50 (ovine COX-1 (oCOX-1); [18]): 39000 nM; IC50 (ovine COX-1 (oCOX-1); [19]): 34200 nM
COc1ncc(-c2ccc(S(C)(=O)=O)cc2)nc1NCc1cccs1 [Compound 116]	4.506	108 nM	4.564	99.9 nM	–	–	–	–	–	fraction unbound [8]: 0.025; improvement in potency [9]: ~6 fold
CS(=O)(=O)c1ccc(-c2cncc(NCc3ccco3)n2)cc1 [Compound 120]	5.371	118 nM	5.44	124 nM	6.397	11.5 nM	2.724	32.4%	1.6%	–
CS(=O)(=O)c1ccc(-c2cncc(NCc3cccs3)n2)cn1 [Compound 141]	5.497	213 nM	5.579	176 nM	6.4815	22.3 nM	–	55%	10%	–
COc1cc(OCc2cccs2)nc(-c2ccc(S(C)(=O)=O)cc2)n1 [Compound 331]	–	–	–	–	–	–	–	–	–	improvement in potency [9]: 10 fold
